Assay results: US20250345443A1, “PHARMACEUTICAL COMPOUND AND USE THEREOF” (DUALITY BIOLOGICS (SUZHOU) CO., LTD., priority 2022, published 2025)

Key:
Assay type in all cases: cell-based
[1] = molecular target: T1, hTLR7 (human Toll-like receptor 7) (Homo sapiens, UniProt Q9NYK1); assay: Agonistic activity of compounds on hTLR7 (HEK-Blue hTLR7 cells, QUANTI-Blue OD650); details: 24 h
T1 construct: host or cells: HEK-Blue hTLR7 cells
T1 sequence (Q9NYK1 27-1049): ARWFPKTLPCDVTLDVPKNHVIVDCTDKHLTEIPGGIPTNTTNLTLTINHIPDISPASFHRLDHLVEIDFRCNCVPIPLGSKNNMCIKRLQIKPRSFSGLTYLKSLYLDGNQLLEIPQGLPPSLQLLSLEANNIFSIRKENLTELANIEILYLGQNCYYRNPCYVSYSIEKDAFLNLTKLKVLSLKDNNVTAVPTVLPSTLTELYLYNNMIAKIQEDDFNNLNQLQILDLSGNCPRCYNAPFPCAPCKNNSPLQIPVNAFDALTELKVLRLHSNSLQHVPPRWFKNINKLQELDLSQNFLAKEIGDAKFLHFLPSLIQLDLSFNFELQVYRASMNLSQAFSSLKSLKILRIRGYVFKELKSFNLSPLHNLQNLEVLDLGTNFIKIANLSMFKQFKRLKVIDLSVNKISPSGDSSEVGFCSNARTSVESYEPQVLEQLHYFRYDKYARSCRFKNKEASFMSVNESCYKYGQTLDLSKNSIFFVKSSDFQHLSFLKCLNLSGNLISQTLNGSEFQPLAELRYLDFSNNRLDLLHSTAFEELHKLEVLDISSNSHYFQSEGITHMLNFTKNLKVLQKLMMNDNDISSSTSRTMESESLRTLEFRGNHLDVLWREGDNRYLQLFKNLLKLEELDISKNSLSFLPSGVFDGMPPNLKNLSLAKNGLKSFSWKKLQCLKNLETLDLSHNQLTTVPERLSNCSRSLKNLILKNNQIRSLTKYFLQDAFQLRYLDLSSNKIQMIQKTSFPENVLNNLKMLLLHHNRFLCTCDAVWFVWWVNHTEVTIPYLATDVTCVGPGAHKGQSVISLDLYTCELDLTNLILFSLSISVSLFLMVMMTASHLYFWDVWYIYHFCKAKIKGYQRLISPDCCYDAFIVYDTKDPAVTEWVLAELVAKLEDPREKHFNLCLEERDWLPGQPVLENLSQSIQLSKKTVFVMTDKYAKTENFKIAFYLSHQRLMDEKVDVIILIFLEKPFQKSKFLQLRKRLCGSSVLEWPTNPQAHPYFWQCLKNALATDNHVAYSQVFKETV
Experimental: (§1) In this example, the agonistic activity of the compounds of the present application on hTLR7 (human Toll-like receptor 7) and hTLR8 (human Toll-like receptor 8) was assessed; the induction activity of the compounds on human PBMCs for TNF-α and IFN-α production was assessed in human PBMCs (human peripheral blood mononuclear cells).
(§2) All compounds were formulated in DMSO into 30 mM concentrated stock solutions and preserved at 4° C. […] HEK-Blue hTLR7 and HEK-Blue hTLR8 cell lines were purchased from InvivoGen, and human PBMCs were purchased from Shanghai Saily Biotechnology Co., Ltd. (Cat. No. XFB—HP100B).
(§3) Compound dilution: The compounds of the present application were diluted with DMSO, for example, to about 15 mM. The reference compounds were diluted and then sequentially added to cell plates. […] DMSO was added to the negative control wells at 0.2 μL/well, and the reference compounds were added to the positive control wells. The final concentration of DMSO was 0.2%.
(§4) Cell plating: When an 80% confluence of HEK Blue hTLR7&8 cells in the culture flask was observed under a microscope, the culture medium was discarded, 10 mL of detection medium was added, and the cells were pipetted to form a single-cell suspension. The cells were counted using a cell counter and diluted to 500,000 cells/mL. The cells were plated at 100 μL/50,000 cells/well in the 96-well plates containing the compounds. The compounds and cells were co-incubated in an incubator at 37° C. with 5% CO2 for 24 h.
(§5) Compound activity detection: 20 μL of cell supernatant was taken from each well and added to an experimental plate containing QUANTI-Blue™ reagent at 180 μL/well. The plate was incubated at 37° C. for 1 h, and then the absorbance at 650 nm (OD650) was measured on the multimode microplate reader Flexstation III.
(§6) The EC50 values of the compounds were calculated.

[2] = molecular target: T2, hTLR8 (human Toll-like receptor 8) (Homo sapiens, UniProt Q9NR97); assay: Agonistic activity of compounds on hTLR8 (HEK-Blue hTLR8 cells, QUANTI-Blue OD650); details: 24 h
T2 construct: host or cells: HEK-Blue hTLR8 cells
T2 sequence (Q9NR97 27-1041): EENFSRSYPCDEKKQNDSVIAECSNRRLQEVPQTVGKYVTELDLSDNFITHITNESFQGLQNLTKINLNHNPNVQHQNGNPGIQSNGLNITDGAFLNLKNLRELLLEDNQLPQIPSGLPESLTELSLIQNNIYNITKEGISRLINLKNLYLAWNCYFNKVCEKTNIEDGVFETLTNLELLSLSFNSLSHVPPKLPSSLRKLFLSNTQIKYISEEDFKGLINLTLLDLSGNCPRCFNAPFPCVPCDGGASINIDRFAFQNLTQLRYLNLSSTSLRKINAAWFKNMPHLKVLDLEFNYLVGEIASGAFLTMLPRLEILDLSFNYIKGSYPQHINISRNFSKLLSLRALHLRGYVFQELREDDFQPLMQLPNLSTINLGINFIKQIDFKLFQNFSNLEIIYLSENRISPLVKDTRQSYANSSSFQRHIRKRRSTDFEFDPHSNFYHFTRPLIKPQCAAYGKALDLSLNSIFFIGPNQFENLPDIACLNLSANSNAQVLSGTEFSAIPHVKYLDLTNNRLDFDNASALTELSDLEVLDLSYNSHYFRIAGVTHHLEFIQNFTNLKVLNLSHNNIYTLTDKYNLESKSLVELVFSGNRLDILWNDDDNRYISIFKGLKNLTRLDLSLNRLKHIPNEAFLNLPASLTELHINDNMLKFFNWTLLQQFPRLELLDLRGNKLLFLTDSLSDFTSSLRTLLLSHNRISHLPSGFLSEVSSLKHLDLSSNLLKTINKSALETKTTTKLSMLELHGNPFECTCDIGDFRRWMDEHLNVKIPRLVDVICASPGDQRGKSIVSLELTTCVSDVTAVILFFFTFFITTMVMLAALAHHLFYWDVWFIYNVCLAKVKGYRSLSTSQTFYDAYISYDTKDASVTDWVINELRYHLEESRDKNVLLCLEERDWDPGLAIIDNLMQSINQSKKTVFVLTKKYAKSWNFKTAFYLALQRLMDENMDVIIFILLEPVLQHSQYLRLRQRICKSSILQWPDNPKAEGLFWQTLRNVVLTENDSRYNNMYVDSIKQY
Experimental: as §1, §2, §3, §4, §5, §6

human PBMCs [3] = assay: Induction activity of compounds on TNF-α in human PBMCs (ELISA); details: 24 h
Experimental: (§7) PBMC cells were treated with the compounds. The compounds of the present application were diluted with DMSO, for example, to about 15 mM. The reference compounds were diluted to 5 mg/mL and then sequentially added to cell plates. The compounds were serially 3-fold diluted to give a total of 8 concentrations and added to cell plates, with two replicate wells set for each concentration. DMSO was added to the negative control wells at 0.4 μL/well, and the reference compounds at 5 mg/mL were added to the positive control wells at 0.4 μL/well. The final concentration of DMSO was 0.2%. Frozen human PBMCs in cryopreservation tubes were quickly thawed in a 37° C. water bath and transferred into 50-mL centrifuge tubes. Pre-warmed RPMI1640 medium was gradually added, and the mixture was well mixed and centrifuged for 15 min before the supernatant was discarded. The cells were resuspended in a culture medium and then counted. The cell suspension was adjusted to 2.5×10^6 cells/mL with the culture medium. Diluted cells were added at 200 μL/500,000 cells/well in the 96-well plates containing the compounds.
The plate was then washed 3 times.
(§8) Compound activity data analysis: The OD450 values were converted to TNF-α and IFN-α contents by GraphPad Prism software analysis and fitted to give dose-response curves of the compounds. The EC50 values of the compounds were calculated.

human PBMCs [4] = assay: Induction activity of compounds on IFN-α in human PBMCs (ELISA); details: 24 h
Experimental: as §7, §8

hTLR8 = molecular target: T3, hTLR8 (Homo sapiens, UniProt Q9NR97); assay: Stimulation of spleen cells from hTLR8-C57BL/6 mice with TLR8 agonists (ELISA)
T3 construct: tissue Biocytogen; host or cells: spleen cells from hTLR8-C57BL/6 (hTLR8 humanized, knock-in) mice
T3 sequence (Q9NR97 27-1041): T2 sequence (Q9NR97 27-1041)

Structure (SMILES)	EC50 [1]	EC50 [2]	EC50 (human PBMCs [3]; PBMC)	EC50 (human PBMCs [4]; PBMC)	secretion of TNFα and IFNγ by spleen cells (hTLR8)	EC50 (human PBMCs [3])	EC50 (human PBMCs [4])
CCCN(CCC)C(=O)C1=Cc2ccc(-c3ccc(C(=O)N4CCCC4)cc3)cc2N=C(N)C1 [VTX-2337, reference compound]	> 30000 nM	21.1 nM	1010 nM	> 7500 nM	–	–	–
CCCCc1nc2c(N)nc3cccc(CCCCCN)c3c2s1 [compound 14]	191 nM	11.6 nM	147 nM	74 nM	–	–	–
CCCCc1nc2c(N)nc3cccc(CCCCCN)c3c2o1 [compound 19]	149 nM	11.3 nM	–	–	–	–	–
CCCN(Cc1ccc(N)cc1)C(=O)C1=Cc2ccc(-c3ccc(C(=O)N4CC[C@@H](O)C4)cc3)cc2N=C(N)C1 [compound 11]	–	–	303 nM	453 nM	–	–	–
CCCN(Cc1ccc(N)cc1)C(=O)C1=Cc2ccc(-c3cncc(CO)c3)cc2N=C(N)C1 [compound 10]	6260 nM	33.2 nM	375 nM	45 nM	–	–	–
CCCCc1nc2c(N)nc3cccc(CCCCCCN)c3c2s1 [compound 17]	192 nM	173 nM	132 nM	50 nM	–	–	–
CCCN(Cc1ccc(N)cc1)C(=O)C1=Cc2ccc(-c3ccc4c(c3)C(=O)OC4)cc2N=C(N)C1 [compound 12]	1670 nM	432 nM	351 nM	191 nM	–	–	–
CCCCc1nc2c(N)nc3cccc(CCCCN)c3c2s1 [compound 16]	434 nM	55.2 nM	117 nM	451 nM	–	–	–
CCCC[C@](C)(CO)Nc1nc(N)nc2cc(F)cnc12 [GS-9688]	–	–	–	–	increase in the secretion of TNFα and IFNγ	–	–
CCOCc1nc2c(N)nc3ccccc3c2n1CC(C)(C)O [R848, reference compound]	–	–	–	–	–	2330 nM	202 nM
CCCN(Cc1cccc(N)c1)C(=O)C1=Cc2ccc(-c3cncc(CO)c3)cc2N=C(N)C1 [compound 13]	14400 nM	60.8 nM	–	–	–	–	–
CCCCc1nc2c(N)nc3cccc(CCCCN)c3c2o1 [compound 20]	73.3 nM	6.52 nM	–	–	–	–	–
CCOCc1nc2c(N)nc3cccc(CCCCCN)c3c2s1 [compound 18]	1060 nM	260 nM	–	–	–	–	–
